Measured values from patent publication US12479866B2, “Boron-containing rho kinase inhibitors” (Percipiad, Inc., priority 2019, dated 2025).
Several values for one entry are separate records, joined by “and”; a condition that tells them apart may be missing. Identical values can stand only once. Like-named read-outs stand apart in the source and are kept apart here.

Experiments:
[1] = system: primary hTM cells; test: CellTox Green cytotoxicity assay in hTM cells; format: cell-based; conditions: 24 h, 48 h, 72 h
Description: Commercially available RealTime-Glo™ MT cell viability (Promega, catalog #G9712) and CellTox™ Green cytotoxicity (Promega, catalog #G8731) assays were used in assessing effect of compounds on primary hTM cell viability and cytotoxicity. The RealTime-Glo™ MT cell viability assay is a nonlytic, homogeneous, bioluminescent method that determines the number of viable cells in culture by measuring the reducing potential of cells and thus metabolism (MT). Viable cells reduce the proprietary pro-substrate to generate a substrate for NanoLuc® luciferase. This substrate diffuses from cells into the surrounding culture medium, where it is rapidly used by the NanoLuc® Enzyme to produce a luminescent signal. In a contrasting and complementary manner, CellTox™ Green cytotoxicity assay measures changes in membrane integrity that occur as a result of cell death. This assay system uses a proprietary asymmetric cyanine dye that is excluded from viable cells but preferentially stains the dead cells' DNA. […]
Human™ cells were cultured and maintained as described in Example 12. […] Light emitted by luciferase and fluorescence emitted by dye binding to DNA (excitation 485 nm and emission 525 nm) were measured at 24 h, 48 h, and 72 h after incubation using plate based luminescence and fluorescence plate readers.

[2] = system: hTM cells; test: hTM cell morphology changes (microscopy); conditions: for hTM cell morphology: 20 hours
[3] = system: primary hTM cells; test: RealTime-Glo MT cell viability assay in hTM cells; format: cell-based; conditions: for Cell viability compared to DMSO controls: 30 uM and 10 μm; for Cell viability: 3.33 μm
Description: Commercially available RealTime-Glo™ MT cell viability (Promega, catalog #G9712) and CellTox™ Green cytotoxicity (Promega, catalog #G8731) assays were used in assessing effect of compounds on primary hTM cell viability and cytotoxicity. The RealTime-Glo™ MT cell viability assay is a nonlytic, homogeneous, bioluminescent method that determines the number of viable cells in culture by measuring the reducing potential of cells and thus metabolism (MT). Viable cells reduce the proprietary pro-substrate to generate a substrate for NanoLuc® luciferase. This substrate diffuses from cells into the surrounding culture medium, where it is rapidly used by the NanoLuc® Enzyme to produce a luminescent signal. In a contrasting and complementary manner, CellTox™ Green cytotoxicity assay measures changes in membrane integrity that occur as a result of cell death. This assay system uses a proprietary asymmetric cyanine dye that is excluded from viable cells but preferentially stains the dead cells' DNA. The fluorescent signal produced by the dye binding to the dead-cell DNA is proportional to cytotoxicity.
Human™ cells were cultured and maintained as described in Example 12. Fifty μl cells (600 cells) in culture media containing compound, 25 μl media with RealTime-Glo™ MT cell viability assay reagent and 25 μl media with CellTox™ Green cytotoxicity assay reagent were plated in black, clear bottom 96-well plates. Light emitted by luciferase and fluorescence emitted by dye binding to DNA (excitation 485 nm and emission 525 nm) were measured at 24 h, 48 h, and 72 h after incubation using plate based luminescence and fluorescence plate readers.

[4] = system: Phospho-MYPT1 Thr853; test: Inhibition of MYPT1 phosphorylation in human trabecular meshwork (hTM) cells, western blot
Description: The outflow of aqueous humor across the trabecular meshwork (TM) is regulated by, among other factors, actomyosin contraction of the TM cells and altered extracellular matrix. ROCK is known to inhibit the phosphatase activity of myosin light chain phosphatase (MLCP) by phosphorylating MYPT1 at amino acids Thr696 and Thr853. […] Media with inhibitors was suctioned off, wells washed 2 times with cold PBS pH 7.4 buffer, and attached cells were scrapped off with 500 μl (T75 flasks) or 100 μl (6-well plates) SDS-PAGE sample buffer, and collected into 1.5 ml microcentrifuge tubes. • 5.
Two days before compound addition 6-well plates were seeded at a density of 75,000 cells/well. On the day of compound addition media was replaced with 3 ml fresh media containing compounds at different concentration. Fifteen hours after compound addition cells in each well were lysed with 0.2 ml extraction buffer (SDS-PAGE sample buffer containing […] and protease inhibitors) and extracts were collected.
Compounds (10 μM) were added to hTM cells cultured in 60 mm plates and cell extracts collected after […]. Cells were lysed with 0.2 ml lysis buffer and 20 μl extract was loaded in each lane (FIG. 7).

[5] = system: HEK293 cells; test: CellTiter-Glo Luminescent Cell Viability Assay; conditions: HEK293 cells, two days
Description: We used CellTiter-Glo® Luminescent Cell Viability Assay (Promega, cat #G7573) to determine the number of viable cells in culture based on quantitation of the ATP present, which signals the presence of metabolically active cells. • 1. Prepared HEK293 suspension culture cells (ThermoFisher, cat #A14635) and added 50 μl cells in media (12,500 cells) to each well of a white, opaque-walled 96-well plate in triplicate. • 2. […] Incubated at 37° C. and 5% CO2 for two days. • 4. Added 100 μl of CellTiter-Glo® Reagent to each well and mix contents for 2 minutes on an orbital shaker to induce cell lysis. • 5. Recorded luminescence using a plate luminometer.

[6] = system: New Zealand White rabbits; conditions: 0.1 ml of 5 mg/ml
Description: The right eye that was not treated served as the control. […] The eyes of initial and confirmatory test animals were examined with slit lamp for ocular lesions. […] The animals were also observed for clinical signs of toxicity, morbidity and mortality.

[7] = Solubility in saline; format: physicochemical
[8] = system: MDR1-MDCK cell monolayers; test: MDR1-MDCK Permeability; format: in vitro ADME; conditions: MDR1-MDCK
Description: (§1) MDR1-MDCK Permeability. Experiment was conducted by Absorption Systems. MDR1-MDCK cell monolayers were grown to confluence on collagen-coated, microporous membranes in 12-well assay plates. The permeability assay buffer was Hanks' balanced salt solution containing 10 mM HEPES and 15 mM glucose at a pH of 7.4. The buffer in the receiver chamber also contained 1% bovine serum albumin. The dosing solution concentration was 5 μM of test article in the assay buffer. Cell monolayers were dosed on the apical side (A-to-B) or basolateral side (B-to-A) and incubated at 37° C. with 5% CO2 in a humidified incubator. Samples were taken from the donor and receiver chambers at 120 minutes. Each determination was performed in duplicate. The flux of lucifer yellow was also measured post experimentally for each monolayer to ensure no damage was inflicted to the cell monolayers during the flux period. […] Permeability calculations were performed as per Absorption Systems protocol, Table 24.

[9] = system: MDR1; test: MDR1-MDCK Permeability; format: in vitro ADME; conditions: dog
Description: as §1

[10] = target: ROCK1 (Homo sapiens (Human), UniProt Q13464); test: ROCK1 ADP-Glo kinase enzyme inhibition assay; format: biochemical
Chain of ROCK1 (Q13464 whole entry): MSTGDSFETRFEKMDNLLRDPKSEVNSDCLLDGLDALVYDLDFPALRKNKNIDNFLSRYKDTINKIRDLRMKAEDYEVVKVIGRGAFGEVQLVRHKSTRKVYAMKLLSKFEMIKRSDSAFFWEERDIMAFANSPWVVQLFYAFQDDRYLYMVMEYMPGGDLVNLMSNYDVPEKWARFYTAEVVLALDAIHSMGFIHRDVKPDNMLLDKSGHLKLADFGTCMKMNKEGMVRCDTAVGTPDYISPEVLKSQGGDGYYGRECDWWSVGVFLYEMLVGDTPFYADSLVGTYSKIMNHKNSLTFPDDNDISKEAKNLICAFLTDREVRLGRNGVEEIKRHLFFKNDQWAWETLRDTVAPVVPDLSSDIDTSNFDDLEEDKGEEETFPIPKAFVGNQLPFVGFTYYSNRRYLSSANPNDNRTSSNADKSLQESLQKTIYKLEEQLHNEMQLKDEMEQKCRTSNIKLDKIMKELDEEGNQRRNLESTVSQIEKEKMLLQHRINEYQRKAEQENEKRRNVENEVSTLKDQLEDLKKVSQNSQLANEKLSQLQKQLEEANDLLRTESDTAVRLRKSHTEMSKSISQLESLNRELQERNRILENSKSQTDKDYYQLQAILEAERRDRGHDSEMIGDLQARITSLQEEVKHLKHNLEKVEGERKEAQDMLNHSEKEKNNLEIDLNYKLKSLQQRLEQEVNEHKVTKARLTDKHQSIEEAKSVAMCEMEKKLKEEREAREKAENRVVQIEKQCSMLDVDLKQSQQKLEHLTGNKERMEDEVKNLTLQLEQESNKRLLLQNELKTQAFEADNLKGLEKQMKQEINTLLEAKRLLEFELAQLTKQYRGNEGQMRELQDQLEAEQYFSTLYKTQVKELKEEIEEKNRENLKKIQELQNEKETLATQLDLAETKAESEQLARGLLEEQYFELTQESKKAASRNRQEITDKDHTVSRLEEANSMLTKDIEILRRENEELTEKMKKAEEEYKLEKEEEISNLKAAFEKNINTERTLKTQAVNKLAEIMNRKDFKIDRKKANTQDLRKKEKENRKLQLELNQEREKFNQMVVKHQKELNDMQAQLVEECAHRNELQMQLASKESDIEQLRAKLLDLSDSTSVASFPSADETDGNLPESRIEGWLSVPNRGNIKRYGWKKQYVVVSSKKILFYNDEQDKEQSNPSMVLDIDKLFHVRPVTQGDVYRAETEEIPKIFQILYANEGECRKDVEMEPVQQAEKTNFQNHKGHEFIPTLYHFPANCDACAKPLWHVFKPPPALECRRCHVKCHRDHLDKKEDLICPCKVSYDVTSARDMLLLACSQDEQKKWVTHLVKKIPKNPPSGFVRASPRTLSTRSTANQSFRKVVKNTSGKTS
Description: (§2) We measured ROCK and PKA kinase enzyme activity inhibition by compounds using commercially available ROCK1 (Promega Corporation, cat #V9581), ROCK2 (Promega, cat #V4045), and PKA kinase (Promega, cat #V4247) ADP-Glo™ assay kits. ADP-Glo™ Kinase Assay is a luminescent ADP detection assay that provides a homogeneous method to measure kinase activity by quantifying the amount of ADP produced during a kinase reaction. The assay is performed in two steps. First, after the kinase reaction, an equal volume of ADP-Glo™ Reagent is added to terminate the kinase reaction and deplete the remaining ATP. Second, the Kinase Detection Reagent is added to simultaneously convert ADP to ATP and allow the newly synthesized ATP to be measured using a luciferase/luciferin reaction. The light generated is measured using a luminometer. A complete protocol is included with the kits and is also available at the Promega website. The assay is briefly described below. • 1. Diluted enzyme, substrate, ATP, and compounds (inhibitors) in Kinase Buffer (40 mM Tris, 7.5, 20 mM MgCl2, 0.1 mg/ml BSA, 50 μM DTT). • 2. Added 1 μl of inhibitor, 2 μl of enzyme and 2 μl of substrate/ATP mix to the wells of 384-well low volume nonbinding assay plate A series of three-fold dilution of inhibitor was prepared and assayed for each inhibitor. • 3. Incubated at room temperature for 60 minutes. • 4. Added 5 μl of ADP-Glo™ Reagent. • 5. Incubated at room temperature for 60 minutes. • 6. Added 10 μl of Kinase Detection Reagent • 7. Incubated at room temperature for 30 minutes.
(§3) Recorded luminescence (Integration time 1 second) using a plate-based luminometer.
Calculated Percent Enzyme Activity: First subtract the signal of the negative control (no enzyme and no inhibitor) from each sample's signal. Then use the mean relative light units (RLU) values for the 0% kinase activity (neither inhibitor nor enzyme) and the 100% kinase activity (no compound) to calculate the other percent enzyme activities remaining in the presence of the different dilutions of inhibitor. […]

[11] = Caco-2 Permeability; format: in vitro ADME; conditions: human
Description: as §1, with “Caco-2” for “MDR1-MDCK”, “Caco-2 cells (clone C2BBe1) were obtained from American Type Culture Collection (Manassas, VA). Cell” for “MDR1-MDCK cell”, “post-experimentally” for “post experimentally”, “23.” for “24.”

[12] = system: Caco-2 cells; test: Caco-2 Permeability; format: in vitro ADME; conditions: Caco-2
Description: as §1, with “Caco-2” for “MDR1-MDCK”, “Caco-2 cells (clone C2BBe1) were obtained from American Type Culture Collection (Manassas, VA). Cell” for “MDR1-MDCK cell”, “post-experimentally” for “post experimentally”, “23.” for “24.”

[13] = target: PKA (Homo sapiens (Human), UniProt P17612); test: PKA ADP-Glo kinase enzyme inhibition assay; format: biochemical; conditions: read-out: PKAIC50
Description: as §2, with “Added 1 μl of inhibitor, 2 μl of enzyme and 2 μl of substrate/ATP mix to the wells of 384-well low volume nonbinding assay plate A series of three-fold dilution of inhibitor was prepared and assayed for each inhibitor. • 3. Incubated at room temperature for 60 minutes. • 4. Added 5 μl of ADP-Glo™ Reagent. • 5. Incubated at room temperature for 60 minutes. • 6. Added 10 μl of Kinase Detection Reagent • 7. Incubated at room temperature for 30 minutes.” left out
as §3
Calculated Percent Enzyme Activity: First subtract the signal of the negative control (no enzyme and no inhibitor) from each sample's signal. […]

[14] = target: ROCK2 (Homo sapiens (Human), UniProt O75116); test: ROCK2 ADP-Glo kinase enzyme inhibition assay; format: biochemical
Chain of ROCK2 (O75116 whole entry): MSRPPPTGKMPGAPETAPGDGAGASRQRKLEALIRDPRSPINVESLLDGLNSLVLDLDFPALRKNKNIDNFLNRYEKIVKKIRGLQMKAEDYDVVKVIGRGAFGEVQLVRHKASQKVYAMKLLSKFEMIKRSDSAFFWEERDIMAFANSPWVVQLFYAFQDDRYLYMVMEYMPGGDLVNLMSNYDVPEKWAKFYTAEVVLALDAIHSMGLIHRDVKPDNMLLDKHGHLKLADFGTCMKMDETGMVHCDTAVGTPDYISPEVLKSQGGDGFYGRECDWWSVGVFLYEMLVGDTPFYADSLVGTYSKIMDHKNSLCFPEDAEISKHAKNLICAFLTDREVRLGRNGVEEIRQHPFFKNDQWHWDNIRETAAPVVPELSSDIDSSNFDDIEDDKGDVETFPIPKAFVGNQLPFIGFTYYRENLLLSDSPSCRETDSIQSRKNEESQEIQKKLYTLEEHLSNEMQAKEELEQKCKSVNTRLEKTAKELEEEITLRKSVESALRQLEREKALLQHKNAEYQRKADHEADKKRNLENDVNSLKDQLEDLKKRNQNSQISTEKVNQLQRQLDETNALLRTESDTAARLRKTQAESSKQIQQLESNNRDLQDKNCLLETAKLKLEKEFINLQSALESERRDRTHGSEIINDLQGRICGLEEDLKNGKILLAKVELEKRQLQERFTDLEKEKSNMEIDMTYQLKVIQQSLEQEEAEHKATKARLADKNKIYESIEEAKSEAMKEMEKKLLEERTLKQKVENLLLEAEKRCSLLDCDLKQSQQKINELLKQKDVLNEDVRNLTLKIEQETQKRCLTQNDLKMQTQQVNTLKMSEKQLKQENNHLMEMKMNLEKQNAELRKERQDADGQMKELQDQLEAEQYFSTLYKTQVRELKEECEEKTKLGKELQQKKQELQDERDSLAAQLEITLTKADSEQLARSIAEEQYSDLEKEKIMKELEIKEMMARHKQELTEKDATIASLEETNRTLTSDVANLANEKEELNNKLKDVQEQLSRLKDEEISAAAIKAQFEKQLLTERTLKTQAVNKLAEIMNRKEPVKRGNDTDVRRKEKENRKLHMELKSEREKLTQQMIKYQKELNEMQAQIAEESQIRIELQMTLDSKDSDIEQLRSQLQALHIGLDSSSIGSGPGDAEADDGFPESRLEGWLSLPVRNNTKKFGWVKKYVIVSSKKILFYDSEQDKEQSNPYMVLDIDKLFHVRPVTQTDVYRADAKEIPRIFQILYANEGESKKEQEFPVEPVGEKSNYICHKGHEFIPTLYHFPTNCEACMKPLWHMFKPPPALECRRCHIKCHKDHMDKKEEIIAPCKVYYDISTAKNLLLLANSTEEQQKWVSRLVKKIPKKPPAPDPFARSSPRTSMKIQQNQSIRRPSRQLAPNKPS
Description: as §2, §3
Calculated Percent Enzyme Activity: First subtract the signal of the negative control (no enzyme and no inhibitor) from each sample's signal. Then use the mean relative light units (RLU) values for the 0% kinase activity (neither inhibitor nor enzyme) and the 100% kinase activity (no compound) to calculate the other percent enzyme activities remaining in the presence of the different dilutions of inhibitor.
Inhibitor stock solutions of 10 mM are made in DMSO and stored at −20° C. Dilutions were made in assay buffer immediately before use.

## Cc1ccc(C(=O)OCc2ccc([C@@H](CN)C(=O)Nc3ccc4cnccc4c3)cc2)c(C)c1.Cl.Cl [Netarsudil.2HCl]
[1]
  Cytotoxicity / membrane integrity (in words): concentration dependent
[2]; 10 μM
  hTM cell morphology: became small and round
[2]; […] and 3.3 μM
  hTM cell morphology: started contracting and detaching from plate
[2]; hTM cells, 30, 10, 3.33, or 1.11 μM, 24 hours
  cellular morphological changes: affected cell morphology starting at 1.11 μM showing cell contraction and becoming round and small at 10 μM
[3]; 1.11 μM
  reduction in viability: 10%
[3]; within 24 h
  Cell viability compared to DMSO controls: < 2%
[3]; within 48 h
  Cell viability compared to DMSO controls: < 0.1%
[3]; 24 h
  Cell viability: 53%
[3]; 48 h
  Cell viability: 15%
[3]; 72 h
  Cell viability: 9%
[4]; 2.5 μM inhibitors
  Inhibition of MYPT1 Thr853 phosphorylation (western blot): inhibited phosphorylation of MYPT1
[4]; 10 μM inhibitors, 7 hours
  Inhibition of MYPT1 Thr853 phosphorylation (western blot): completely inhibited MYPT1 phosphorylation
[4]; 10 μM, fifteen hours
  Amount of protein in lane (toxicity): much lower amount of protein because of toxicity
[5]; 2.5 μM
  reduction in ATP levels: 80%
[5]; 25 μM
  reduction in ATP levels: 96%
[6]
  eye irritation classification: irritating
  mean score Iris: 2.0
  mean score conjunctival oedema (chemosis): 4.0
  mean score conjunctival redness: 3.0
  mean score corneal opacity: 3.0
[7]
  solubility in saline: ≤ 5000 µg/mL

## Cl.Cl.NCC(C(=O)Nc1ccc2cnccc2c1)c1ccc(B(O)O)cc1 (centres unmarked) [Compound 10]
[8]
  Brain Penetration Classification: low
[9]; MDCK-MDR1, pH 7.4, A to B
  recovery at 120 min, 5 μM: 95.5%
[9]; MDCK-MDR1, pH 7.4, A to B, read-out: Papp Avg
  Papp at 120 min, 5 μM: < 0.0566 ×10⁻⁶ cm/s
[9]; MDCK-MDR1, pH 7.4, A to B, read-out: Papp R1
  Papp at 120 min, 5 μM: < 0.0566 ×10⁻⁶ cm/s
[9]; MDCK-MDR1, pH 7.4, A to B, read-out: Papp R2
  Papp at 120 min, 5 μM: < 0.0566 ×10⁻⁶ cm/s
[9]; MDCK-MDR1, pH 7.4, B to A
  recovery at 120 min, 5 μM: 91.1%
[9]; MDCK-MDR1, pH 7.4, B to A, read-out: Papp Avg
  Papp at 120 min, 5 μM: < 0.0772 ×10⁻⁶ cm/s
[9]; MDCK-MDR1, pH 7.4, B to A, read-out: Papp R2
  Papp at 120 min, 5 μM: < 0.0772 ×10⁻⁶ cm/s
[10]; average of two lots of compound 10 and compound 10.2HCl, read-out: average IC50 estimate against ROCK1
  IC50: 84 nM
[10]; read-out: ROCK1 IC50
  IC50: 137 nM and 62 nM
[11]; Caco-2, pH 7.4
  efflux ratio at 120 min, 5 μM: 2.58
[11]; Caco-2, pH 7.4, A to B
  recovery at 120 min, 5 μM: 108%
[11]; Caco-2, pH 7.4, A to B, read-out: Papp Avg
  Papp at 120 min, 5 μM: 0.192 ×10⁻⁶ cm/s
[11]; Caco-2, pH 7.4, A to B, read-out: Papp R1
  Papp at 120 min, 5 μM: 0.209 ×10⁻⁶ cm/s
[11]; Caco-2, pH 7.4, A to B, read-out: Papp R2
  Papp at 120 min, 5 μM: 0.176 ×10⁻⁶ cm/s
[11]; Caco-2, pH 7.4, B to A
  recovery at 120 min, 5 μM: 103%
[11]; Caco-2, pH 7.4, B to A, read-out: Papp Avg
  Papp at 120 min, 5 μM: 0.496 ×10⁻⁶ cm/s
[11]; Caco-2, pH 7.4, B to A, read-out: Papp R1
  Papp at 120 min, 5 μM: 0.565 ×10⁻⁶ cm/s
[11]; Caco-2, pH 7.4, B to A, read-out: Papp R2
  Papp at 120 min, 5 μM: 0.426 ×10⁻⁶ cm/s
[12]
  Absorption Potential Classification: low (Papp(A to B) < 1 × 10^−6 cm/s: low)
  Significant Efflux: No
[13]
  IC50: 52 nM
[14]; Exp #1, read-out: ROCK2 IC50(Exp #1)
  IC50: 27 nM
[14]; Exp #2, read-out: ROCK2 IC50(Exp #2)
  IC50: 26 nM
[14]; Exp #3, read-out: ROCK2 IC50(Exp #3)
  IC50: 26 nM and 15 nM
[14]; average of two lots of compound 10 and compound 10.2HCl, read-out: average IC50 estimate against ROCK2
  IC50: 25 nM
